Like-named read-outs stand apart in the source and are kept apart here.
Columns and labels:
pSTAT1 (Tyr-701) [1] = target: T1, pSTAT1 (Tyr-701) (Homo sapiens, UniProt P42224); test: Luminex bead-based assay, G-CSF-induced pSTAT1 in Kasumi-1 cells; type: cell-based; conditions: Figure 2D, Kasumi-1, G-CSF; read-out: Luminex pSTAT1 (Tyr-701) IC50, representative experiment
T1 construct: endogenous in cells; host or cells: Kasumi-1
T1 sequence (P42224 1-750): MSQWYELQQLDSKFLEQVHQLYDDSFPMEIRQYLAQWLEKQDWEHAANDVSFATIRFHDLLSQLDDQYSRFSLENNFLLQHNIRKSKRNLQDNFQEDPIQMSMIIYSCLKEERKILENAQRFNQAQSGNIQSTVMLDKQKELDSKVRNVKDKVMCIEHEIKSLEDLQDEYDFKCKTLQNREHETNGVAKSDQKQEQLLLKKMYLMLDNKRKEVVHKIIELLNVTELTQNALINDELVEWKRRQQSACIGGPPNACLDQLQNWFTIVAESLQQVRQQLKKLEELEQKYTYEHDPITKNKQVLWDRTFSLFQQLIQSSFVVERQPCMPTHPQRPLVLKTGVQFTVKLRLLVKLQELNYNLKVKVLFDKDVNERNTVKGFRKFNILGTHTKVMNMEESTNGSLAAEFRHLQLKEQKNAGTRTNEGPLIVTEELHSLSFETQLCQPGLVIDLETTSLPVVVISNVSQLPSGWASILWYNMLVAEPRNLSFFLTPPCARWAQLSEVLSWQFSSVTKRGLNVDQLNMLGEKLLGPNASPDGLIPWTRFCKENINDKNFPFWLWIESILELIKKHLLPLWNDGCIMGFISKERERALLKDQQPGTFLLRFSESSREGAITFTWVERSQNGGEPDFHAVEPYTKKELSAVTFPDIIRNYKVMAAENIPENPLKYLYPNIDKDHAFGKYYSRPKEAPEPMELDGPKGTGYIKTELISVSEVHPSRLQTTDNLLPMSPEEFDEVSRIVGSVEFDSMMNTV
Method: The equilibrium binding levels obtained ± compound were normalized (resonance obtained in the presence of compound ÷ the resonance obtained in the absence of compound × 100) and plotted against Log [nM] […] B. Inhibition of ligand-stimulated STAT phosphorylation, measured by phosphoflow. Serum-starved (1 hour) Kasumi-1 cells, pre-incubated with compound/DMSO (1 hour), were treated with G-CSF (10 ng/ml, 15 min, left two panels) or IFN-γ (10ng/ml, 15 min, right panel). Cells were permeabilized and stained with Alexa647-pSTAT3, and PE-pSTAT1 antibodies and analyzed on BD LSR2. FCS files were uploaded to Cytobank for pSTAT3 and pSTAT1 quantitation. Histograms depicting pSTAT3 and pSTAT1 levels are shown. C. Mean fluorescence (pSTAT3/1) levels were plotted as function the Log [M] compound, and IC50 calculated using GraphPad. […] D. Inhibition of ligand-stimulated STAT phosphorylation, measured by Luminex. Serum-starved (1 hour) Kasumi-1 cells, pre-incubated with compound/DMSO (0/0.1/0.3/1/3/10/100 μM, 1 hour), were treated with G-CSF (10 ng/ml, 15′). Total protein extracts of cells were assayed for pSTAT3, pSTAT1, and GAPDH levels by Luminex. […] These values were plotted as a function of Log [M] compound, and IC50 values calculated using GraphPad. […]
for analysis as described below. were determined by plotting % maximum response as a 3-D pharmacophore generation function of log concentration of compound and fitting the Each molecular chemical feature, including experimental points to a competitive binding model using hydrogen bond donor, hydrogen bond acceptor, positive a four parameter logistic equation: R = Rhigh − (Rhigh − R low)/ (1 + conc/A1)^A2, where R = percent response at and negative ionizable group, and hydrophobic region, inhibitor concentration, R = percent response with no was generated using the LigandScout application compound, R= percent response at highest compound high framework and projected into 3-D space. concentration, A2 = fitting parameter (slope) and A1 = low Feature-pairing IC50 (BIAevaluation Software version 4.1). […]

UM-SCC-17B cells = test: Anchorage dependent growth (MTT); type: cell-based; conditions: Homo sapiens, 48 hrs
Method: GAPDH-normalized pSTAT3 or pSTAT1 values were divided by that for untreated cells and expressed in percentage. These values were plotted as a function of Log [M] compound, and IC50 values calculated using GraphPad. […] Viable cells quantitated using MTT. Relative % viability was measured by (viability after any treatment ÷ viability of untreated cells × 100) and plotted as a function of Log [M] […] C. […] Representative curves are shown.
Cells were cultured in triplicates in complete DMEM ± drug, in ultra-low attachment 96 well plates for 72 hrs or cell-culture treated plates for 48 hrs and viable cells were quantitated using MTT. Optical density (OD) was measured at 590 nm using a 96-well multi-scanner (EL-800 universal microplate reader, BioTek Inc, VT, USA). Relative % viability (viability after any treatment ÷ viability of untreated cells × 100) was plotted along Y-axis. At least 2 replicates experiments were performed and were used for IC50 calculation using GraphPad software.

pSTAT1 (Tyr-701) [2] = target: T1, pSTAT1 (Tyr-701); test: Phosphoflow, IFN-γ-induced pSTAT1 in Kasumi-1 cells; type: cell-based; conditions: Figure 2C, Kasumi-1; read-out: Phosphoflow pSTAT1 (Tyr-701) IC50, representative experiment
Method: The equilibrium binding levels obtained ± compound were normalized (resonance obtained in the presence of compound ÷ the resonance obtained in the absence of compound × 100) and plotted against Log [nM] […] B. Inhibition of ligand-stimulated STAT phosphorylation, measured by phosphoflow. Serum-starved (1 hour) Kasumi-1 cells, pre-incubated with compound/DMSO (1 hour), were treated with G-CSF (10 ng/ml, 15 min, left two panels) or IFN-γ (10ng/ml, 15 min, right panel). Cells were permeabilized and stained with Alexa647-pSTAT3, and PE-pSTAT1 antibodies and analyzed on BD LSR2. FCS files were uploaded to Cytobank for pSTAT3 and pSTAT1 quantitation. Histograms depicting pSTAT3 and pSTAT1 levels are shown. C. Mean fluorescence (pSTAT3/1) levels were plotted as function the Log [M] compound, and IC50 calculated using GraphPad. […] D. Inhibition of ligand-stimulated STAT phosphorylation, measured by Luminex. Serum-starved (1 hour) Kasumi-1 cells, pre-incubated with compound/DMSO (0/0.1/0.3/1/3/10/100 μM, 1 hour), were treated with G-CSF (10 ng/ml, 15′). Total protein extracts of cells were assayed for pSTAT3, pSTAT1, and GAPDH levels by Luminex. GAPDH-normalized pSTAT3 or pSTAT1 values were divided by this ratio for untreated cells and expressed in percentage. These values were plotted as a function of Log [M] compound, and IC50 values calculated using GraphPad.
(§1) Phosphoflow analysis was done as described in Xu et al. Briefly, Kasumi-1 cells, were serum-starved, pre-treated with compound or DMSO (1 hour, RT) and then stimulated with 20 μl of GCSF (10 ng/ml) for 15 minutes at 37°C. The cells were then permeabilized and stained with Alexa647-pSTAT3, Alexa488-pSTAT5 and PE-pSTAT1 antibodies and analyzed using the BD LSR2. FCS files were exported and uploaded to Cytobank for determination of phosphoproteins as earlier. Gating was done on live, single cells and then gates selected for positive ligand-activated pSTAT3 and pSTAT1. IC50 values were calculated using the GraphPad Prism.

UM-SCC-17B xenografts = test: UM-SCC-17B tumor xenograft growth in nude mice; type: in vivo; conditions: IP 5 times a week, 50 mg/kg/day
Method: (§2) Tumor volumes were measured twice weekly.
as §2

pSTAT5 = test: Phosphoflow, G-CSF-induced pSTAT5 in Kasumi-1 cells; type: cell-based; conditions: mean, n ≥ 2, read-out: Ligand Induced Phosphorylation (Phosphoflow) pSTAT5 (G-CSF) IC50
Method: as §1

pSTAT3 = pSTAT3 (Homo sapiens, UniProt P40763); test: pSTAT3 levels in UM-SCC-17B tumor xenografts (immunoblot); conditions: UM-SCC-17B xenografts, C188 50 mg/kg/day
Method: Tumor tissue was minced, homogenized and first), 50% PEG-400 (added second), 40% Saline (added proteins extracted using high-salt buffer, as described last) then vortexed and sonicated at concentration (10 mg/
C57BL/6 mice were provided in membrane (Millipore, Waltham, MA) and immunoblotted. triplicate, a single dose by body weight via either intra-Membranes were probed with antibody against peritoneal (IP) or oral (PO) route at 10 mg/kg at a volume STAT1 pY701 or STAT3 pY705 total STAT1 or STAT3 of 10 mL/kg and plasma samples collected as shown (Transduction labs, Lexington, KY) and β–actin (Abcam, in the study table below. At the indicated times, 3 mice Cambridge, MA). Membranes were stripped between per time point were euthanized per dose route and then

[3] = Maximum tolerated dose in mice; conditions: mouse, in vivo
MB-MDA-468 = MB-MDA-468 in vitro; read-out: Apoptosis EC50; cited from earlier work

pSTAT3, sequence (P40763 whole entry): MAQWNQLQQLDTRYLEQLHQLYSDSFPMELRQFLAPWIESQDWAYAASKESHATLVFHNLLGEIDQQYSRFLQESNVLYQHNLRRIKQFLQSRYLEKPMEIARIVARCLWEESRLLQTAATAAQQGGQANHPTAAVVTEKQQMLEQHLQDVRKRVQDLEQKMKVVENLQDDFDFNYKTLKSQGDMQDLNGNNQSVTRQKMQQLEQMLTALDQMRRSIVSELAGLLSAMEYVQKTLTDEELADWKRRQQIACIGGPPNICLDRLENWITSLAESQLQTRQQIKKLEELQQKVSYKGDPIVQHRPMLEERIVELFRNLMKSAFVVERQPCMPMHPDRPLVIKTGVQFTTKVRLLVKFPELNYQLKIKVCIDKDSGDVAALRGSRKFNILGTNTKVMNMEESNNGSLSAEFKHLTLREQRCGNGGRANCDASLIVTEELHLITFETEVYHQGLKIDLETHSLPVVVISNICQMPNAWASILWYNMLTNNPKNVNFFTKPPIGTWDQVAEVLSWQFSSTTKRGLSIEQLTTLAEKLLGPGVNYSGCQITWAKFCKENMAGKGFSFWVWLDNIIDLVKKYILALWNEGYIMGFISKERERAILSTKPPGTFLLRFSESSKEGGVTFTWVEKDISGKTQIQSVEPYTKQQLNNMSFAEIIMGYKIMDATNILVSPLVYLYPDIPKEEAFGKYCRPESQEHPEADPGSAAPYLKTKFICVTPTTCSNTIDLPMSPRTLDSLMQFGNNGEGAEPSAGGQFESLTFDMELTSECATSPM

## O=C(O)CSc1cc(NS(=O)(=O)c2ccc(C(=O)O)cc2)c2ccccc2c1O [Compound C188]
pSTAT1 (Tyr-701) [1]
  IC50: 21.9 µM
UM-SCC-17B cells; mean, read-out: Anchorage dependent growth (MTT) IC50
  IC50: 6.3 ± 0.8 µM
UM-SCC-17B cells; Figure 4B, read-out: Anchorage Dependent growth IC50, representative experiment
  IC50: 5.7 µM
pSTAT1 (Tyr-701) [2]
  IC50: 23.4 µM
UM-SCC-17B xenografts
  Growth of established UM-SCC-17B xenograft tumors: continued to grow
pSTAT5
  IC50: 40 µM
pSTAT3
  Levels of pSTAT3 in tumors: not reduced significantly
[3]
  MTD at 14 days: 100 mg/kg/day
MB-MDA-468
  EC50: 0.7 µM

From paper PMC5041982, “Small-molecule inhibition of STAT3 in radioresistant head and neck squamous cell carcinoma” (Oncotarget, 2016)
